For orientation: inhibition means the drop in the measured response relative to a control, in per cent.

SMILES strings stand for the structures.

Series [1] has as its target T1, CYP2D6 (Homo sapiens, UniProt P10635).
T1 construct: tissue BD-Gentest 452117; host or cells: human liver microsomes
Nature of the series: CYP inhibition assay in human liver microsome. It counts as in vitro ADME. The note with it: human liver microsomes, probe dextromethorphan, 10µM test compound, dextromethorphan substrate, <0: not or weak inhibitor, read-out: CYP 2D6 inhibition %@10µM. In short, it runs like this: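 HLM mixed with CYP2D6 substrate, preincubated 10 min at 37 °C, started with NADPH regenerating system and run 10 min at 37 °C before acetonitrile quench. Metabolite measured by RapidFire MS/MS against D3-dextrorphan internal standard. % inhibition scaled between DMSO and concentrated-inhibitor controls.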

The target in series [2] is T2, hTLR7 (Homo sapiens, UniProt Q9NYK1).
T2 sequence (Q9NYK1 27-1049): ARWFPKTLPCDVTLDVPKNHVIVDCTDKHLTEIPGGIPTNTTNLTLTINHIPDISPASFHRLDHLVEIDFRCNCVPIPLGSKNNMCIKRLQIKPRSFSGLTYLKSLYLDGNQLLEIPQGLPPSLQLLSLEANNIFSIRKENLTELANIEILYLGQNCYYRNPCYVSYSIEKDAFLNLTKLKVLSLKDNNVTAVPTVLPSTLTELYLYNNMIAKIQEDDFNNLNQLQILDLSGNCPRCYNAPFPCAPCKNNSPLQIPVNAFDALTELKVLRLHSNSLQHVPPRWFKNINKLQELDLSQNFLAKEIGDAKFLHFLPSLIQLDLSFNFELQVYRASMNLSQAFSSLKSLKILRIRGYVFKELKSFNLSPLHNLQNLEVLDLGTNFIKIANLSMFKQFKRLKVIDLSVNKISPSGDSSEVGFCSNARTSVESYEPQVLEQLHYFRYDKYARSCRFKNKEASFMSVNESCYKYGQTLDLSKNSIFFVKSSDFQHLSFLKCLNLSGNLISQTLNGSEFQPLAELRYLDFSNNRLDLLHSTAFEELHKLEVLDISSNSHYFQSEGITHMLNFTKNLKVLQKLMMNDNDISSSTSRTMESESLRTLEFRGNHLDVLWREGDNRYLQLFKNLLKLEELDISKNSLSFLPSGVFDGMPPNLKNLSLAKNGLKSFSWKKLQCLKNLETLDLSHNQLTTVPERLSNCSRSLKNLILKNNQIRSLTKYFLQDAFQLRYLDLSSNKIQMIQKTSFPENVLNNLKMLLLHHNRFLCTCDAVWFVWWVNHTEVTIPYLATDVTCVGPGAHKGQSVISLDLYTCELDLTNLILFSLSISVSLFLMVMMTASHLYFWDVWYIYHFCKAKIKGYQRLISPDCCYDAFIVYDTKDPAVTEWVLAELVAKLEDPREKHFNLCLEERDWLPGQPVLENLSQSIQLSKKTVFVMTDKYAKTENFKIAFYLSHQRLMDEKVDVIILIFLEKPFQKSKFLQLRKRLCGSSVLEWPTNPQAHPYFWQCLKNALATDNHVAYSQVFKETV
Nature of the series: HEK293-Blue-hTLR-7 cells assay (SEAP reporter, R848 stimulation). In kind it is cell-based. The arrangement: host or cells: HEK293 (HEK-Blue). Particulars: HEK293-Blue-hTLR7 cells, R848, 20 hrs; read-out: HEK/hTLR7 IC50. In short, it runs like this: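 HEK293-Blue cells stably expressing human TLR7 with an NF-κB/AP-1-driven SEAP reporter were treated with serially diluted compound (1% DMSO final) plus R848 for 20 h at 37 °C. Supernatant SEAP activity was measured with QUANTI-Blue substrate after 2 h at 37 °C, with absorbance read at 620-655 nm.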

T1 sequence (P10635 whole entry): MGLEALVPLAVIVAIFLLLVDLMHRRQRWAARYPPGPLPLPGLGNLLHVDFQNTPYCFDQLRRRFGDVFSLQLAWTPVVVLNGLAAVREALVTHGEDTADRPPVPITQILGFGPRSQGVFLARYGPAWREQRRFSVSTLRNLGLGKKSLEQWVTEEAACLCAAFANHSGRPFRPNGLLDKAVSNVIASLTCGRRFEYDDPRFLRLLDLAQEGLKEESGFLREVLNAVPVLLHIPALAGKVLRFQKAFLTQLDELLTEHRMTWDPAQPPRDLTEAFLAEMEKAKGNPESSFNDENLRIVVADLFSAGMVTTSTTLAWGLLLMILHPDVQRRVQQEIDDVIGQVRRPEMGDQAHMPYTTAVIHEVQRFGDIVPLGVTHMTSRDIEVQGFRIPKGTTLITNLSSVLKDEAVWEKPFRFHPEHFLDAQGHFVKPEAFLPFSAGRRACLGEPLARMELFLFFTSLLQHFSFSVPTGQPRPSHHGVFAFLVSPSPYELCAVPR

In the case of `C[C@@H]1CN(c2ccc(C#N)c3ncccc23)C[C@H](CN2CCC(Nc3ncc4c(n3)CCNC4)C2)O1` (stereo partly drawn) [Example 57, 5-[(2R,6S)-2-methyl-6-[[3-(5,6,7,8-tetrahydropyrido [4,3-d]pyrimidin-2-ylamino)pyrrolidin-1-yl]methyl]morpholin-4-yl] quinoline-8-carbonitrile], in series [1], the inhibition at 10 min, 10 µM is -8%. Moreover, in series [2], the IC50 is 20 nM.
Turning to `COC1CNCc2ccc(N3CCN(C[C@H]4CN(c5ccc(C#N)c6ncccc56)C[C@@H](C)O4)CC3)cc21` (stereo partly drawn) [Example 58, 5-[(2S,6R)-2-[[4-(4-methoxy-1,2,3,4-tetrahydroisoquinolin-6-yl)piperazin-1-yl]methyl]-6-methyl-morpholin-4-yl]quinoline-8-carbonitrile], the inhibition at 10 min, 10 µM in series [1] came to 13%. In series [2], the IC50 was 16 nM.
For `C[C@@H]1CN(c2ccc(C#N)c3ncccc23)C[C@H](CN2CCN(c3ccc4c(n3)CNCC4)CC2)O1` [Example 69, 5-[(2R,6S)-2-methyl-6-[[4-(5,6,7,8-tetrahydro-1,7-naphthyridin-2-yl)piperazin-1-yl]methyl]morpholin-4-yl]quinoline-8-carbonitrile] the same measures were 8.5% and 12 nM.
For `C[C@@H]1CN(c2ccc(C#N)c3nccnc23)C[C@H](CN2CCN(c3cc4c(cn3)CCNC4)CC2)O1` [Example 80, 8-[(2R,6S)-2-methyl-6-[[4-(5,6,7,8-tetrahydro-2,6-naphthyridin-3-yl)piperazin-1-yl]methyl]morpholin-4-yl]quinoxaline-5-carbonitrile] the same measures were 7% and 8 nM.

Values taken from patent EP3807270B1, “NOVEL HETEROARYL HETEROCYCLYL COMPOUNDS FOR THE TREATMENT OF AUTOIMMUNE DISEASE” (F. Hoffmann-La Roche AG, priority 2018, dated 2019).
